The assay deals with PDE1. The assay can be described thus: In vitro HTRF PDE1 inhibition assay. To be noted: HTRF cGMP assay, 100 nM cyclic GMP, PDE (1A3, 1B or 1C) with calmodulin, 45 minutes at 37° C.; isoform of the tabulated values not stated. It is filed as biochemical. The gist of the method:
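HTRF cGMP competition assay: PDE1A3, 1B or 1C with calmodulin acting on 100 nM cGMP in 1% DMSO, pH 7.4 buffer with Ca2+ and Mg2+, 45 min at 37 °C. Remaining cGMP detected with d2-cGMP and anti-cGMP cryptate (665/615 nm); IC50 reported as banded categories.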
The IC50 is the concentration at which inhibition is half-maximal. The low end stands for greater potency in that assay, the high end for weaker potency in that assay. On to `CC(C)n1ncc2c(=O)n3c(nc21)CN(Cc1ccccc1)C(c1ccccc1)C3` (racemic) [Compound I-108, (±)-8-Benzyl-1-isopropyl-7-phenyl-6,7,8,9-tetrahydropyrazino[1,2-a]pyrazolo[3,4-d]pyrimidin-4(1H)-one], for which the IC50 is greater than 10 µM.
In the case of `O=c1c2nnn(C3CCCC3)c2nc2n1CCN(Cc1ccc(Cl)cc1)C2` [Compound I-128, 6-(4-Chlorobenzyl)-3-cyclopentyl-5,6,7,8-tetrahydropyrazino[1,2-a][1,2,3]triazolo[4,5-d]pyrimidin-10(3H)-one], the IC50 was greater than 10 µM.
`COc1ccccc1CN1CCn2c(nc3c(cnn3C(C)C)c2=O)C1` [Compound I-76, 1-Isopropyl-8-(2-methoxybenzyl)-6,7,8,9-tetrahydropyrazino[1,2-a]pyrazolo[3,4-d]pyrimidin-4(1H)-one] returned an IC50 of 1 to 10 µM.
The result for `COc1cc(CN2CCn3c(nc4c(cnn4C(C)C)c3=O)C2)ccc1F` [Compound I-139, 8-(4-Fluoro-3-methoxybenzyl)-1-isopropyl-6,7,8,9-tetrahydropyrazino[1,2-a]pyrazolo[3,4-d]pyrimidin-4(1H)-one] reads greater than 10 µM; that for `O=c1c2cnn(C3CCCC3)c2nc2n1CCN(Cc1cnccn1)C2` [Compound I-203, 1-Cyclopentyl-8-(pyrazin-2-ylmethyl)-6,7,8,9-tetrahydropyrazino[1,2-a]pyrazolo[3,4-d]pyrimidin-4(1H)-one], 1 to 10 µM.

Values taken from patent publication US20160083391A1, “TRICYCLIC PIPERAZINE DERIVATIVE” (Sunovion Pharmaceuticals Inc., priority 2014, published 2016).
